According to patent US10882871B2, “18/19F-labelled compounds which target the prostate specific membrane antigen” (BRITISH COLUMBIA CANCER AGENCY BRANCH, priority 2016, dated 2021):
Values joined by “and” are separate entries in the source; they are usually repeats but may differ in a detail not shown here. Equal entries are not always repeated.

Test system: tumors derived from LNCaP cells
Experiment: PET/CT imaging and biodistribution of F-18 labeled HTK-01069 and HTK-01070 in tumor-bearing mice
Type: in vivo, mouse (NODSCID 1L2RγKO male mice)
Protocol: LNCap cell line used in the tumor model was obtained commercially from ATTC (LNCaP clone FGC, CRL-1740). It was established from a metastatic site of left supraclavicular lymph node of human prostatic adenocarcinoma. Cells were cultured in PRMI 1640 (StemCell Technologies, Vancouver, BC) supplemented by 10% FBS, 100 U/mL penicillin and 100 μg/mL streptomycin at 37° C. in a humidified incubator containing 5% CO2. Cells grown to 80-90% confluence were then washed with sterile phosphate-buffered saline (1×PBS pH 7.4) and trypsinization. The collected cells number was counted with Hemacytometer (Hausser Scientific).
Tumor implantation: Imaging and biodistribution experiments were performed using NODSCID 1L2RγKO male mice. Three or four mice in each cage equipped with enrichments. The mice were maintained and the experiments were conducted in according to the guidelines established by Canadian Council on Animal Care and approved by Animal Ethics Committee of the University of British Columbia. Mice were housed under pathogen-free conditions and kept on twelve hours light and twelve hours dark cycle in the Animal Research Centre, British Columbia Cancer Research Centre, Vancouver, Canada.
Mice were anesthetized by inhalation with 2.5% isoflurane in 2.0 L/min of oxygen during cells implantation. Mice were implanted subcutaneously with 1×10^7 LNCaP cells behind left shoulder. Mice were imaged or used in biodistribution studies when the tumor grew up to reach 5-8 mm in diameter during 5-6 weeks.
PET/CT Imaging: PET imaging experiments were conducted using Siemens inveon micro PET/CT scanner. Each tumor bearing mouse was injected ˜6.44 MBq of F-18 labeled HTK-01069 and ˜7.08 MBq of F-18 labeled HTK-01070 through the tail vein under anesthesia. After one hour, the mice were sedated again with 2% isoflurane inhalation and positioned in the scanner. Static PET imaging was performed to determined activity uptake of tumor and other organs. A CT scan was obtained for localization and attenuation correction after segmentation for reconstructing the PET images. The data was acquired by scanning the mice for 10 minutes each. The mice were kept warm by a heating pad during acquisition. The mice were euthanized after imaging and followed by biodistribution. Please see FIGS. 2 and 3 of this specification for reconstructed PET images for 1L2RγKO mice injected with HTK-01069 and HTK-01070 respectively.
Blood was withdrawn immediately, and the organs of interest were quickly removed. Each organ was weighed and the tissue radioactivity was measured with a Cobra II gamma counter (Packard), normalized to the injected dose using a standard curve and expressed as the percentage of the injected dose per gram of tissue (% ID/g). Biodistribution data are shown for HTK-01069 in Tables 5, 6 and 7 and HTK-01070 in Tables 8, 9, 10 of the specification respectively.

[1] = 1 h p.i. with co-injection of 0.5 mg DCFPyL, Avg
[2] = 1 h p.i. with co-injection of 0.5 mg DCFPyL, single mice

Compound: C[N+](C)(Cc1ccc(C(=O)NCCCC[C@H](NC(=O)N[C@@H](CCC(=O)O)C(=O)O)C(=O)O)cc1)C[B-](F)(F)[18F] [F-18 HTK-01069]
- Biodistribution Adrenals [1]: 0.35 % ID/g
- Biodistribution Blood [1]: 0.45 % ID/g
- Biodistribution Bone [1]: 0.13 % ID/g
- Biodistribution Brain [1]: 0.03 % ID/g
- Biodistribution Fat [1]: 0.11 % ID/g
- Biodistribution Heart [1]: 0.25 % ID/g
- Biodistribution Intestine [1]: 0.57 % ID/g
- Biodistribution Kidney [1]: 3.54 % ID/g
- Biodistribution Liver [1]: 0.11 % ID/g
- Biodistribution Lung [1]: 0.15 % ID/g
- Biodistribution Muscle [1]: 0.30 % ID/g
- Biodistribution Pancreas [1]: 3.00 % ID/g
- Biodistribution Seminal [1]: 0.38 % ID/g
- Biodistribution Spleen [1]: 0.11 % ID/g
- Biodistribution Stomach [1]: 0.13 % ID/g
- Biodistribution Tail [1]: 0.44 % ID/g
- Biodistribution Testes [1]: 0.10 % ID/g
- Biodistribution Tumour [1]: 0.33 % ID/g
- Biodistribution Bone [2]: 0.15 % ID/g and 0.17 % ID/g and 0.11 % ID/g and 0.10 % ID/g
- Biodistribution Brain [2]: 0.02 % ID/g and 0.03 % ID/g and 0.04 % ID/g
- Biodistribution Heart [2]: 0.17 % ID/g and 0.31 % ID/g and 0.27 % ID/g and 0.26 % ID/g
- Biodistribution Kidney [2]: 2.35 % ID/g and 3.57 % ID/g and 4.08 % ID/g and 4.15 % ID/g
- Biodistribution Lung [2]: 0.10 % ID/g and 0.20 % ID/g and 0.16 % ID/g and 0.13 % ID/g
- Biodistribution Muscle [2]: 0.22 % ID/g and 0.36 % ID/g and 0.37 % ID/g and 0.26 % ID/g
- Biodistribution Pancreas [2]: 2.40 % ID/g and 3.36 % ID/g and 2.71 % ID/g and 3.53 % ID/g
- Biodistribution Stomach [2]: 0.08 % ID/g and 0.13 % ID/g and 0.15 % ID/g
- Biodistribution Tail [2]: 0.43 % ID/g and 0.41 % ID/g and 0.37 % ID/g and 0.55 % ID/g
- Biodistribution Testes [2]: 0.07 % ID/g and 0.13 % ID/g and 0.12 % ID/g and 0.09 % ID/g
- Biodistribution Tumour [2]: 0.30 % ID/g and 0.35 % ID/g and 0.26 % ID/g and 0.42 % ID/g
- Biodistribution Adrenals (1 h p.i., Avg): 3.98 % ID/g
- Biodistribution Blood (1 h p.i., Avg): 0.52 % ID/g
- Biodistribution Bone (1 h p.i., Avg): 0.27 % ID/g
- Biodistribution Brain (1 h p.i., Avg): 0.03 % ID/g
- Biodistribution Fat (1 h p.i., Avg): 1.09 % ID/g
- Biodistribution Heart (1 h p.i., Avg): 1.16 % ID/g
- Biodistribution Intestine (1 h p.i., Avg): 0.55 % ID/g
- Biodistribution Kidney (1 h p.i., Avg): 92.90 % ID/g
- Biodistribution Liver (1 h p.i., Avg): 0.14 % ID/g
- Biodistribution Lung (1 h p.i., Avg): 0.26 % ID/g
- Biodistribution Muscle (1 h p.i., Avg): 0.36 % ID/g
- Biodistribution Pancreas (1 h p.i., Avg): 2.77 % ID/g
- Biodistribution Seminal (1 h p.i., Avg): 2.82 % ID/g
- Biodistribution Spleen (1 h p.i., Avg): 0.48 % ID/g
- Biodistribution Stomach (1 h p.i., Avg): 2.99 % ID/g
- Biodistribution Tail (1 h p.i., Avg): 0.62 % ID/g
- Biodistribution Testes (1 h p.i., Avg): 0.53 % ID/g
- Biodistribution Tumour (1 h p.i., Avg): 5.58 % ID/g
- Biodistribution Brain (1 h p.i., single mice): 0.03 % ID/g
- Biodistribution Fat (1 h p.i., single mice): 0.95 % ID/g and 1.21 % ID/g and 0.74 % ID/g and 1.46 % ID/g
- Biodistribution Intestine (1 h p.i., single mice): 0.43 % ID/g and 0.59 % ID/g and 0.54 % ID/g and 0.64 % ID/g
- Biodistribution Lung (1 h p.i., single mice): 0.21 % ID/g and 0.28 % ID/g and 0.22 % ID/g and 0.32 % ID/g
- Biodistribution Muscle (1 h p.i., single mice): 0.36 % ID/g and 0.39 % ID/g and 0.34 % ID/g and 0.35 % ID/g
- Biodistribution Pancreas (1 h p.i., single mice): 2.32 % ID/g and 2.86 % ID/g and 2.76 % ID/g and 3.17 % ID/g
- Biodistribution Tail (1 h p.i., single mice): 0.70 % ID/g and 0.47 % ID/g and 0.57 % ID/g and 0.74 % ID/g
- Biodistribution Testes (1 h p.i., single mice): 0.44 % ID/g and 0.58 % ID/g and 0.51 % ID/g and 0.60 % ID/g
- Biodistribution Tumour (1 h p.i., single mice): 7.84 % ID/g and 4.16 % ID/g and 4.47 % ID/g and 5.86 % ID/g
- Biodistribution Adrenals (2 h p.i., Avg): 2.01 % ID/g
- Biodistribution Blood (2 h p.i., Avg): 0.16 % ID/g
- Biodistribution Bone (2 h p.i., Avg): 0.12 % ID/g
- Biodistribution Brain (2 h p.i., Avg): 0.03 % ID/g
- Biodistribution Fat (2 h p.i., Avg): 0.43 % ID/g
- Biodistribution Heart (2 h p.i., Avg): 0.72 % ID/g
- Biodistribution Intestine (2 h p.i., Avg): 0.75 % ID/g
- Biodistribution Kidney (2 h p.i., Avg): 51.79 % ID/g
- Biodistribution Liver (2 h p.i., Avg): 0.06 % ID/g
- Biodistribution Lung (2 h p.i., Avg): 0.12 % ID/g
- Biodistribution Muscle (2 h p.i., Avg): 0.24 % ID/g
- Biodistribution Pancreas (2 h p.i., Avg): 2.24 % ID/g
- Biodistribution Seminal (2 h p.i., Avg): 3.24 % ID/g
- Biodistribution Spleen (2 h p.i., Avg): 0.26 % ID/g
- Biodistribution Stomach (2 h p.i., Avg): 2.25 % ID/g
- Biodistribution Tail (2 h p.i., Avg): 0.31 % ID/g
- Biodistribution Testes (2 h p.i., Avg): 0.39 % ID/g
- Biodistribution Tumour (2 h p.i., Avg): 5.36 % ID/g
- Biodistribution Bone (2 h p.i., single mice): 0.12 % ID/g and 0.08 % ID/g and 0.14 % ID/g and 0.13 % ID/g
- Biodistribution Brain (2 h p.i., single mice): 0.04 % ID/g and 0.02 % ID/g and 0.03 % ID/g
- Biodistribution Heart (2 h p.i., single mice): 0.63 % ID/g and 0.61 % ID/g and 0.79 % ID/g and 0.84 % ID/g
- Biodistribution Intestine (2 h p.i., single mice): 0.78 % ID/g and 0.92 % ID/g and 0.63 % ID/g and 0.68 % ID/g
- Biodistribution Kidney (2 h p.i., single mice): 62.04 % ID/g and 35.60 % ID/g and 49.89 % ID/g and 59.65 % ID/g
- Biodistribution Lung (2 h p.i., single mice): 0.16 % ID/g and 0.09 % ID/g and 0.11 % ID/g and 0.14 % ID/g
- Biodistribution Muscle (2 h p.i., single mice): 0.29 % ID/g and 0.18 % ID/g and 0.22 % ID/g and 0.28 % ID/g
- Biodistribution Pancreas (2 h p.i., single mice): 2.39 % ID/g and 1.89 % ID/g and 2.21 % ID/g and 2.48 % ID/g
- Biodistribution Spleen (2 h p.i., single mice): 0.31 % ID/g and 0.18 % ID/g and 0.21 % ID/g and 0.33 % ID/g
- Biodistribution Tail (2 h p.i., single mice): 0.29 % ID/g and 0.24 % ID/g and 0.36 % ID/g and 0.34 % ID/g
- Biodistribution Testes (2 h p.i., single mice): 0.41 % ID/g and 0.37 % ID/g and 0.39 % ID/g
- Biodistribution Tumour (2 h p.i., single mice): 5.03 % ID/g and 4.25 % ID/g and 5.74 % ID/g and 6.41 % ID/g
